Results published in US9573956B2, “Compounds as dual inhibitors of phosphodiesterases and histone deacetylases” (FUNDACIÓN PARA LA INVESTIGACIÓN MÉDICA APLICADA, priority 2013, dated 2017).
Where two headings read alike, the source gives them in different places.

What was measured:
PDE4A1 = target: T1, PDE4A1 (Homo sapiens, UniProt P27815); test: PDE enzyme activity assay (HTRF cGMP), PDE4A1; type: biochemical; details: read-out: PDE4A1 inhibition (IC50)
T1 construct: they are full-length with N-terminal GST tag; GST (N); purchased BPS Biosciences 60040; host or cells: baculovirus infected Sf9 cells

PDE4D7 = PDE4D7 (Homo sapiens, UniProt Q08499); test: PDE enzyme activity assay (HTRF cGMP), PDE4D7; type: biochemical; details: read-out: PDE4D7 inhibition (IC50)
Source text: The biochemical assay to measure PDE5A, PDE9A isoform b, PDE4D7, and PDE4A1 enzyme activities relies on the HTRF cGMP assay kit from CisBio (CisBio, Cat. #62GM2PEB), that determines the amount of cGMP present in the reaction. The enzymes were obtained from BPS Biosciences (GenBank Accession number for PDE5A: NM_001083, Cat. #60050; PDE9A: NM_001001567, Cat. #60090; PDE4D7: NM_001165899, Cat. #60047; and PDE4A1: U97584, Cat. #60040) and they are full-length with N-terminal GST tag. They were expressed in a baculovirus infected Sf9 cell expression system.
For each enzyme, enzyme activity assay was carried out in a 384-well plate in a final volume of 20 μL, as follows: • 2.5 μL of vehicle or studied compound 4× concentrated prepared in assay buffer containing 50 mM Tris-HCl, 6 mM MgCl2, pH 7.4 (PDE5A, PDE4D7, PDE4A1) and additionally 0.03% Tween-20 (PDE9A). Final percentage of DMSO was 0.5%. • 2.5 μL of PDE5A (7 μg/mL) or 2.5 μL PDE9A (0.2 μg/mL) or 2.5 μL PDE4D7 (1.25 μg/mL) or 2.5 μL PDE4A1 (1.5 μg/mL) diluted in assay buffer. […]
Fluorescence of each well was determined at […] using the plate reader EnVision (Perkin-Elmer). Results were calculated from the 665 nm/620 nm ratio. […]

HDAC1 = HDAC1 (Homo sapiens, UniProt Q13547); test: HDAC enzyme activity assay (fluorogenic substrate), HDAC1; type: biochemical; details: read-out: HDAC1 inhibition (IC50)
PDE9A isoform b = target: T2, PDE9A isoform b (Homo sapiens, UniProt O76083); test: PDE enzyme activity assay (HTRF cGMP), PDE9A; type: biochemical; details: recombinant enzyme; read-out: PDE9A inhibition (IC50)
T2 construct: they are full-length with N-terminal GST tag; GST (N); purchased BPS Biosciences 60090; host or cells: baculovirus infected Sf9 cells

pCREB [1] = test: PDE activity in wild type primary neurons (Western blot pCREB); type: cell-based; details: Mus musculus, Neuron, 0.5 h, 30 min, EC50 = 50% increase in pCREB over basal
[2] = test system: acetylated histone 3 at Lys9 (AcH3K9); test: HDAC activity in wild type primary neurons (Western blot AcH3K9); type: cell-based, mouse; details: 30 min, EC50 = 50% increase in AcH3K9 over basal
[3] = test system: phosphorylated tau (p-tau); test: AD-related markers in Tg2576 neurons: pTau; type: cell-based; details: Mus musculus, Neuron, 48 h, treated two days, EC50 = 50% decrease in pTau over basal
pCREB [4] = test: In-vivo activity, hippocampus of wild type mice: pCREB; parameters: species or system mouse; details: i.p. 40 mg/kg, hippocampus one hour later
Procedure: (§1) To determine the ability of the compounds to inhibit HDAC and PDE in the brain, the compound was administered to wild type mice by i.p. at a dose of 40 mg/kg (n=3). Another group of animals received the vehicle (1/1/8, v:v:v, DMSO/Tween 20/saline). One hour later, mice were sacrificed by cervical dislocation and their hippocampus was quickly dissected from the brains.
(§2) Total tissue homogenates were obtained by homogenizing the hippocampus in a cold lysis buffer with protease inhibitors (0.2 M NaCl, 0.1 M HEPES, 10% glycerol, 200 mM NaF, 2 mM Na4P2O7, 5 mM EDTA, 1 mM EGTA, 2 mM DTT, 0.5 mM PMSF, 1 mM Na3VO4 and Complete Protease Inhibitor Cocktail, Roche Diagnostics). The homogenate was then centrifuged at 14,000×g at 4° C. for 20 min and the supernatant aliquoted and stored at −80° C. Total protein concentrations were determined using the BioRad Bradford protein assay (BioRad Laboratories). Protein samples were analyzed as described in the “in vitro” section.

AcH3 = test: In-vivo activity, hippocampus of wild type mice: AcH3; parameters: species or system mouse; details: i.p. 40 mg/kg, hippocampus one hour later
Procedure: as §1, §2

pTau = test: AD-related markers in Tg2576 mice after chronic treatment: pTau; type: in vivo, mouse; details: chronic treatment (3-5 weeks), hippocampal homogenates
Procedure: AD-related markers (APP processing, pTau and acetylated-tubulin) in Tg2576 mice. The effects of the compounds were also analysed in Tg2576 mice after chronic treatment (3-5 weeks) using hippocampal homogenates obtained in a buffer containing SDS (2%) and following the same protocol as described in the in vitro studies.

HDAC1, sequence (Q13547 whole entry, canonical isoform): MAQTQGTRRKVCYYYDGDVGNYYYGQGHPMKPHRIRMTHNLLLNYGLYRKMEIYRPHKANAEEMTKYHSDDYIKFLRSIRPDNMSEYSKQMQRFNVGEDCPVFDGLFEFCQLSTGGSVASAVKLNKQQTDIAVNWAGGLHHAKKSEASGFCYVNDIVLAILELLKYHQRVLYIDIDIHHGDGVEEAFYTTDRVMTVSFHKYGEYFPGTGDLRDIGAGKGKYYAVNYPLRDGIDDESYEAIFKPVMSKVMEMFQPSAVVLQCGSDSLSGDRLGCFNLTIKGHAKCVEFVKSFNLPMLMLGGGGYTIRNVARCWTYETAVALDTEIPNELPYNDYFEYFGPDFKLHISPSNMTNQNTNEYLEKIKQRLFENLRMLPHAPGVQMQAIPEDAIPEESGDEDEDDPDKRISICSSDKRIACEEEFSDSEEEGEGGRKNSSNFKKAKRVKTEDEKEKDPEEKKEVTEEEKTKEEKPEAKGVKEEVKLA
PDE4D7, sequence (Q08499 1-748 isoform Q08499-11): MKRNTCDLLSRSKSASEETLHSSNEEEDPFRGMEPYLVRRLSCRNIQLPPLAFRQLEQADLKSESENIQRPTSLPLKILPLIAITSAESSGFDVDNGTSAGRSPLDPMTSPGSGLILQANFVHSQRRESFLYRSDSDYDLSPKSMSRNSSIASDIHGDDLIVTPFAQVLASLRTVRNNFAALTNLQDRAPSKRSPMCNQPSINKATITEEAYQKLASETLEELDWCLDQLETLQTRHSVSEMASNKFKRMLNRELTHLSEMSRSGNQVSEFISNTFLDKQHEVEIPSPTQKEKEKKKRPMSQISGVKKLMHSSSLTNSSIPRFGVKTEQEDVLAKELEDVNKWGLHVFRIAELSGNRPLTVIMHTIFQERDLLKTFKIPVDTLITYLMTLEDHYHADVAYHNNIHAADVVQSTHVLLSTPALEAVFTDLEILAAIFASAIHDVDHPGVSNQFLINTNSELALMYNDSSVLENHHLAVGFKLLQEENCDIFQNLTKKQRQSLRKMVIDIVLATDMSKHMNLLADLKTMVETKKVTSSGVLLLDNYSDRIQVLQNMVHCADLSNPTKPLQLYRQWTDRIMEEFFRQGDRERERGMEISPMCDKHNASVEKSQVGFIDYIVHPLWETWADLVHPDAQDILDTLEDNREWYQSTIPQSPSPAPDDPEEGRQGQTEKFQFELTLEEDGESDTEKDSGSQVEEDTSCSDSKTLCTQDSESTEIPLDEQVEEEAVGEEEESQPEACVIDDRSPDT
T1 sequence (P27815 1-647 isoform P27815-4): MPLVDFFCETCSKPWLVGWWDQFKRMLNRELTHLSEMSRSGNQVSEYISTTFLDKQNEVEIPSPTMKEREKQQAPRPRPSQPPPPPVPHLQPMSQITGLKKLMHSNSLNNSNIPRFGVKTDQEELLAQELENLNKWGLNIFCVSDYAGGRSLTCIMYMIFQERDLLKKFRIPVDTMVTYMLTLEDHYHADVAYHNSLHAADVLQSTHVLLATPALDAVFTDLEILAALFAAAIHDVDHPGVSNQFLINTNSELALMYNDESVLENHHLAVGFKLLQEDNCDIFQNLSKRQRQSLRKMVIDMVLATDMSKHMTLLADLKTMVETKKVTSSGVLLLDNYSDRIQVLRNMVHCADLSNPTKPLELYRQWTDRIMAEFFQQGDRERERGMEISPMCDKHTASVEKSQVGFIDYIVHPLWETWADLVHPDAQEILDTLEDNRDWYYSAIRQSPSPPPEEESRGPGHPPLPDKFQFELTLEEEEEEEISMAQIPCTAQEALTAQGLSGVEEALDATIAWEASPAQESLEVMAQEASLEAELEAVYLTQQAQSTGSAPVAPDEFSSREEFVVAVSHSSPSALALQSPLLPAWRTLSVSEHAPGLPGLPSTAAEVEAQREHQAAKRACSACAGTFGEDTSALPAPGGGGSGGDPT
T2 sequence (O76083 1-533 isoform O76083-2): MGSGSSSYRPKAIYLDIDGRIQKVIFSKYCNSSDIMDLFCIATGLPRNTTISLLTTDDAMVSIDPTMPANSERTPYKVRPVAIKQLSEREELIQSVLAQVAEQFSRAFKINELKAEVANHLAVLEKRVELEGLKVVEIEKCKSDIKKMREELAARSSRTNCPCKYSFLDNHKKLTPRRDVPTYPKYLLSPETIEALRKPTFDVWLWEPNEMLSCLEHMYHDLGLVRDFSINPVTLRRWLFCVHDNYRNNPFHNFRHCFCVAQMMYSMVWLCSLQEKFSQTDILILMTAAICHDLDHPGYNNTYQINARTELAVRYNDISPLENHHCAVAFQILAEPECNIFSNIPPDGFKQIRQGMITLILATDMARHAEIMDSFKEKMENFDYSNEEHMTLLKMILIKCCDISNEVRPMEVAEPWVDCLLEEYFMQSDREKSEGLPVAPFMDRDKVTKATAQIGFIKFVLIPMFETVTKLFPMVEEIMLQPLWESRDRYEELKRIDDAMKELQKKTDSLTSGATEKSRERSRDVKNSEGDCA

Row | Structure (SMILES) | IC50 (PDE4A1) | IC50 (PDE4D7) | IC50 (HDAC1) | IC50 (PDE4A1; recombinant enzyme) | IC50 (PDE4D7; recombinant enzyme) | IC50 (HDAC1; recombinant enzyme) | IC50 (PDE9A isoform b) | EC50 (pCREB [1]) | AcH3 (EC50) [2] | EC50 [3] | pCREB, increment in biological response vs basal (pCREB [4]) | AcH3, increment in biological response vs basal (AcH3) | pTau, increment in biological response vs basal (pTau)
1 | COc1ccc(N(C(=O)c2c(Cl)cncc2Cl)C2CCN(c3ncc(C(=O)NO)cn3)CC2)cc1OC1CCCC1 [Example 5-04] | > 10000 nM | > 10000 nM | 10 to 1000 nM | – | – | – | – | – | – | – | – | – | –
2 | COc1ccc(N(CCCCCCC(=O)NO)C(=O)c2c(Cl)cncc2Cl)cc1OC1CCCC1 [Example 5-05, 7-(N-[3,5-Dichloropyridin-4-ylcarbonyl]-N-[(3-(cyclopentyloxy)-4-methoxyphenyl)]amino)-N-hydroxyheptanamide] | – | – | – | 1000 to 10000 nM | > 10000 nM | 10 to 1000 nM | – | – | – | – | – | – | –
3 | CN1CC(=O)N2[C@H](c3ccc4c(c3)OCO4)c3[nH]c4ccccc4c3C[C@@H]2C1=O [Tadalafil, reference compound] | – | – | – | – | – | > 10000 nM | > 10000 nM | 10 to 1000 nM | N.E. | 10 to 1000 nM | +++ (basal×2≦(+++)<basal×3) | N.E. (N.E. means No Effect) | +++ (basal×2≦(+++)<basal×3)
